Experimental findings from patent US10160747B2, “Compounds and methods for kinase modulation, and indications therefor” (Plexxikon Inc., priority 2016, dated 2018) are described below.

The structures appear in SMILES notation.

The assay deals with T1, FLT3-D835Y (Homo sapiens, UniProt P36888, D835Y).
T1 construct: purchased Invitrogen PV3967
T1 sequence (P36888 27-993 D835Y): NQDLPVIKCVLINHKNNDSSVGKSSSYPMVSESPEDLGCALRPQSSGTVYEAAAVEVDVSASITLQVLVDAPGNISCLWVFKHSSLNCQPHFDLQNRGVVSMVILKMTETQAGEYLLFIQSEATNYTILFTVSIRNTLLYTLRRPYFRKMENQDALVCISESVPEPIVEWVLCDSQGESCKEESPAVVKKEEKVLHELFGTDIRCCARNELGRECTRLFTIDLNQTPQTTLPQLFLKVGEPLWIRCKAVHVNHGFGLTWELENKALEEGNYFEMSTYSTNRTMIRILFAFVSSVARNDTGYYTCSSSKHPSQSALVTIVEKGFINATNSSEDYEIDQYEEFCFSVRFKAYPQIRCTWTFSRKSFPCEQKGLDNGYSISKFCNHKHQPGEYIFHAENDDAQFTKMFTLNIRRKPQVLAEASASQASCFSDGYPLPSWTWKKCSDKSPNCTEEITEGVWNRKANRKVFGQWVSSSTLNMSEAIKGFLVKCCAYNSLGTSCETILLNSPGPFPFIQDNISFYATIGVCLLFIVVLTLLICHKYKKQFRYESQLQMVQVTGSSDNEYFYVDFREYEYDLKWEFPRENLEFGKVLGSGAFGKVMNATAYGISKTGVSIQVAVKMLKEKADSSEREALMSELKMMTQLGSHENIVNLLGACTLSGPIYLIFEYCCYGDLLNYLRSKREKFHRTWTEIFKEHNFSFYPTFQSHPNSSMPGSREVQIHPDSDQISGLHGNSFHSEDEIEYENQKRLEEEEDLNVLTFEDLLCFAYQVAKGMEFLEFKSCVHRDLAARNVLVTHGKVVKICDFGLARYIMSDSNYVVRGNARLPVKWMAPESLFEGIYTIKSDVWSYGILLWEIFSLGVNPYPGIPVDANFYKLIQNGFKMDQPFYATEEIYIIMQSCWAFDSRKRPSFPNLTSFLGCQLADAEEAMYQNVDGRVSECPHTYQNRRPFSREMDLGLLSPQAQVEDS
The assay is described as follows: FLT3-D835Y recombinant enzyme kinase assay (AlphaScreen). The format is biochemical. The following applies: 8 pt, GMean. In outline: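 IC50 values come from AlphaScreen proximity signal: phosphorylated biotin-poly(Glu4-Tyr) (30 nM) bridges streptavidin donor and anti-phosphotyrosine PY20 acceptor beads. Enzyme reactions ran at 100 μM ATP for c-KIT versus 10 μM for both FLT3 mutants (ITD, D835Y); beads added in stop buffer, room temperature.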

`COc1cncc(NC(=O)Cc2ccc(-c3cnc(Nc4cnn(C)c4)nc3)cc2F)c1` [Compound P-0086, 2-[2-fluoro-4-[2-[(1-methylpyrazol-4-yl)amino]pyrimidin-5-yl]phenyl]-N-(5-methoxy-3-pyridyl)acetamide]: the IC50 lay within 0.0001 to 10 µM.

Take `COc1ncc(NC(=O)Cc2ccc(-c3cnc(Nc4cnn(C)c4)nc3)cc2F)cc1C(F)(F)F` [Compound P-0089, 2-[2-fluoro-4-[2-[(1-methylpyrazol-4-yl)amino]pyrimidin-5-yl]phenyl]-N-[6-methoxy-5-(trifluoromethyl)-3-pyridyl]acetamide]: the IC50 lay in the range of 0.0001 to 10 µM.

Regarding `Cn1cc(Nc2ncc(-c3ccc(CC(=O)NCc4ccc(C(F)(F)F)nc4)c(F)c3)cn2)cn1` [Compound P-0087, 2-[2-fluoro-4-[2-[(1-methylpyrazol-4-yl)amino]pyrimidin-5-yl]phenyl]-N-[[6-(trifluoromethyl)-3-pyridyl]methyl]acetamide], the IC50 is 0.0001 to 10 µM.

Turning to `CC(C)(C)c1ccc(NC(=O)Cc2ccc(-c3cnc4[nH]cc(F)c4c3)cc2F)cn1` [Compound P-0043, N-(6-tert-butyl-3-pyridyl)-2-[2-fluoro-4-(3-fluoro-1H-pyrrolo[2,3-b]pyridin-5-yl)phenyl]acetamide], the IC50 was in the range of 0.0001 to 10 µM.

Turning to `Cc1nn(C)cc1Nc1ncc(-c2ccc(CC(=O)Nc3cnc(C)c(C(F)(F)F)c3)c(F)c2)cn1` [Compound P-0077, 2-[4-[2-[(1,3-dimethylpyrazol-4-yl)amino]pyrimidin-5-yl]-2-fluoro-phenyl]-N-[6-methyl-5-(trifluoromethyl)-3-pyridyl]acetamide], the IC50 was 0.0001 to 10 µM.

Consider `Cc1cc(CC(=O)Nc2cccc(C(F)(F)F)c2)ccc1-c1cnc2[nH]c(-c3ccccc3)cc2c1` [Compound P-0002, 2-[3-methyl-4-(2-phenyl-1H-pyrrolo[2,3-b]pyridin-5-yl)phenyl]-N-[3-(trifluoromethyl)phenyl]acetamide], for which the IC50 fell in the range of 0.0001 to 10 µM.

`Cc1ncc(NC(=O)Cc2ccc(-c3cnc(Nc4cnn5ccccc45)nc3)cc2F)cc1C(F)(F)F` [Compound P-0065, 2-(2-fluoro-4-(2-(pyrazolo[1,5-a]pyridin-3-ylamino)pyrimidin-5-yl)phenyl)-N-(6-methyl-5-(trifluoromethyl)pyridin-3-yl)acetamide]: the IC50 fell in the range of 0.0001 to 10 µM.

`Cc1ncc(NC(=O)Cc2ccc(-c3cnc(Nc4cnn(C)c4C)nc3)cc2F)cc1C(F)(F)F` [Compound P-0076, 2-[4-[2-[(1,5-dimethylpyrazol-4-yl)amino]pyrimidin-5-yl]-2-fluoro-phenyl]-N-[6-methyl-5-(trifluoromethyl)-3-pyridyl]acetamide]: the IC50 was in the range of 0.0001 to 10 µM.

On to `Cn1cc(Nc2ncc(-c3ccc(CC(=O)Nc4cncc(C(C)(F)F)c4)c(F)c3)cn2)cn1` [Compound P-0090, N-[5-(1,1-difluoroethyl)-3-pyridyl]-2-[2-fluoro-4-[2-[(1-methylpyrazol-4-yl)amino]pyrimidin-5-yl]phenyl]acetamide], for which the IC50 lay within 0.0001 to 10 µM.

As for `Cn1cnc(Nc2ncc(-c3cc(F)c(CC(=O)Nc4cncc(C(F)(F)F)c4)cc3F)cn2)c1` [Compound P-0078, 2-(2,5-difluoro-4-(2-((1-methyl-1H-imidazol-4-yl)amino)pyrimidin-5-yl)phenyl)-N-(5-(trifluoromethyl)pyridin-3-yl)acetamide], the IC50 lay in the range of 0.0001 to 10 µM.

Take `O=C(Cc1ccc(-c2cnc3[nH]cc(F)c3c2)cc1F)Nc1cncc(C(F)(F)F)c1` [Compound P-0053, 2-[2-fluoro-4-(3-fluoro-1H-pyrrolo[2,3-b]pyridin-5-yl)phenyl]-N-[5-(trifluoromethyl)-3-pyridyl]acetamide]: the IC50 lay within 0.0001 to 10 µM.

Consider `Cc1ncc(NC(=O)Cc2ccc(-c3cnc4[nH]nc(C5CC5)c4c3)cc2F)cc1C(F)(F)F` [Compound P-0066, 2-(4-(3-cyclopropyl-1H-pyrazolo[3,4-b]pyridin-5-yl)-2-fluorophenyl)-N-(6-methyl-5-(trifluoromethyl)pyridin-3-yl)acetamide], for which the IC50 is 0.0001 to 10 µM.

With `COc1ncc(NC(=O)Cc2ccc(-c3cnc4[nH]cc(C(C)=O)c4c3)cc2F)cc1C(F)(F)F` [Compound P-0035, 2-[4-(3-acetyl-1H-pyrrolo[2,3-b]pyridin-5-yl)-2-fluoro-phenyl]-N-[6-methoxy-5-(trifluoromethyl)-3-pyridyl]acetamide], the IC50 was in the range of 0.0001 to 10 µM.

As to `CCC(=O)c1c[nH]c2ncc(-c3ccc(CC(=O)Nc4cnc(C)c(C(F)(F)F)c4)c(F)c3)cc12` [Compound P-0070, 2-[2-fluoro-4-(3-propanoyl-1H-pyrrolo[2,3-b]pyridin-5-yl)phenyl]-N-[6-methyl-5-(trifluoromethyl)-3-pyridyl]acetamide], the IC50 was in the range of 0.0001 to 10 µM.

Consider `COc1ncc(NC(=O)Cc2ccc(-c3cnc4[nH]cc(F)c4c3)cc2F)cc1C(F)(F)F` [Compound P-0034, 2-[2-fluoro-4-(3-fluoro-1H-pyrrolo[2,3-b]pyridin-5-yl)phenyl]-N-[6-methoxy-5-(trifluoromethyl)-3-pyridyl]acetamide], for which the IC50 fell in the range of 0.0001 to 10 µM.

In the case of `Cc1ncc(NC(=O)Cc2ccc(-c3cnc(Nc4cn[nH]c4)nc3)cc2F)cc1C(F)(F)F` [Compound P-0027, 2-[2-fluoro-4-[2-(1H-pyrazol-4-ylamino)pyrimidin-5-yl]phenyl]-N-[6-methyl-5-(trifluoromethyl)-3-pyridyl]acetamide], the IC50 lay within 0.0001 to 10 µM.

Regarding `COc1ncc(NC(=O)Cc2ccc(-c3cnc4[nH]cc(F)c4c3)c(F)c2)cc1C(F)(F)F` [Compound P-0048, 2-[3-fluoro-4-(3-fluoro-1H-pyrrolo[2,3-b]pyridin-5-yl)phenyl]-N-[6-methoxy-5-(trifluoromethyl)-3-pyridyl]acetamide], the IC50 fell in the range of 0.0001 to 10 µM.

For the compound `Cn1cnc(Nc2ncc(-c3ccc(CC(=O)Nc4cncc(C(F)(F)F)c4)c(F)c3)cn2)c1` [Compound P-0052, 2-[2-fluoro-4-[2-[(1-methylimidazol-4-yl)amino]pyrimidin-5-yl]phenyl]-N-[5-(trifluoromethyl)-3-pyridyl]acetamide], the IC50 lay within 0.0001 to 10 µM.

In the case of `COc1ncc(NC(=O)Cc2ccc(-c3cnc(Nc4cn[nH]c4)nc3)cc2F)cc1C(F)(F)F` [Compound P-0026, 2-[2-fluoro-4-[2-(1H-pyrazol-4-ylamino)pyrimidin-5-yl]phenyl]-N-[6-methoxy-5-(trifluoromethyl)-3-pyridyl]acetamide], the IC50 fell in the range of 0.0001 to 10 µM.

Turning to `O=C(Cc1ccc(-c2cnc3[nH]cc(Cl)c3n2)cc1F)Nc1cncc(C(F)(F)F)c1` [Compound P-0061, 2-[4-(7-chloro-5H-pyrrolo[2,3-b]pyrazin-2-yl)-2-fluoro-phenyl]-N-[5-(trifluoromethyl)-3-pyridyl]acetamide], the IC50 was in the range of 0.0001 to 10 µM.

In the case of `COc1ncc(NC(=O)Cc2ccc(-c3cnc(Nc4cnn5ccccc45)nc3)cc2F)cc1C(F)(F)F` [Compound P-0037, 2-[2-fluoro-4-[2-(pyrazolo[1,5-a]pyridin-3-ylamino)pyrimidin-5-yl]phenyl]-N-[6-methoxy-5-(trifluoromethyl)-3-pyridyl]acetamide], the IC50 lay in the range of 0.0001 to 10 µM.

With `O=C(Cc1ccc(-c2cnc3[nH]cc(F)c3c2)cc1F)Nc1ccnc(C(F)(F)F)c1` [Compound P-0029, 2-[2-fluoro-4-(3-fluoro-1H-pyrrolo[2,3-b]pyridin-5-yl)phenyl]-N-[2-(trifluoromethyl)-4-pyridyl]acetamide], the IC50 lay within 0.0001 to 10 µM.

`Cn1cc(Nc2ncc(-c3ccc(CC(=O)Nc4cc(C(F)(F)F)ccn4)c(F)c3)cn2)cn1` [Compound P-0082, 2-[2-fluoro-4-[2-[(1-methylpyrazol-4-yl)amino]pyrimidin-5-yl]phenyl]-N-[4-(trifluoromethyl)-2-pyridyl]acetamide]: the IC50 was 0.0001 to 10 µM.

As for `Cn1cc(Nc2ncc(-c3ccc(CC(=O)Nc4cncc(C5CC5)c4)c(F)c3)cn2)cn1` [Compound P-0081, N-(5-cyclopropyl-3-pyridyl)-2-[2-fluoro-4-[2-[(1-methylpyrazol-4-yl)amino]pyrimidin-5-yl]phenyl]acetamide], the IC50 lay within 0.0001 to 10 µM.

As to `Cn1cc(Nc2ncc(-c3ccc(CC(=O)Nc4cncc(C(F)(F)F)c4)c(F)c3)cn2)cn1` [Compound P-0084, 2-[2-fluoro-4-[2-[(1-methylpyrazol-4-yl)amino]pyrimidin-5-yl]phenyl]-N-[5-(trifluoromethyl)-3-pyridyl]acetamide], the IC50 was 0.0001 to 10 µM.

Consider `O=C(Cc1ccc(-c2cnc(Nc3cnn4ccccc34)nc2)cc1F)Nc1ccnc(C(F)(F)F)c1` [Compound P-0033, 2-[2-fluoro-4-[2-(pyrazolo[1,5-a]pyridin-3-ylamino)pyrimidin-5-yl]phenyl]-N-[2-(trifluoromethyl)-4-pyridyl]acetamide], for which the IC50 was in the range of 0.0001 to 10 µM.
